# Test results reported in patent publication US10562857B2 (AFASCI, Inc., priority 2015, dated 2020).
# Molecular target: T1, Cav3.2 channel (Homo sapiens, UniProt O95180)
# T1 construct: expressed in transfected cells; host or cells: HEK-293, tetracycline inducible expression system (Invitrogen)
# Assay: Whole-cell patch clamp of T-type Cav3.2 channel expressed in HEK293 cells
# Type: cell-based
# Conditions: for IC50: Table 1, tested at at least 4 concentrations, read-out: IC50; for inhibition at 1 µM: HEK293, Table 1 primary screening
# Experimental: Cav3.1, Cav3.2 or Cav3.3 channels were expressed in human embryonic kidney (HEK)-293 cells using a tetracycline inducible expression system (Invitrogen). Cells were maintained in 25 cm^2 tissue culture flasks at 37° C., 5% CO2, and 100% relative humidity in D-MEM/F12 (Dulbecco's Modified Eagle Medium/Nutrient Mixture F-12; Gibco) supplemented with fetal bovine serum (FBS, 10% v/v), sodium pyruvate (0.5 mM, Gibco), penicillin-streptomycin (100 U/mL, 100 μg/mL) and Geneticin® Selective antibiotic (G418; 0.5 mg/mL). Cells were detached from the flask base using a non-enzymatic cell dissociation solution (Cellstripper, Corning), removed and re-seeded on to poly-D-lysine coated glass coverslips in 35 mm dishes. Cells in dishes were further supplemented with G418 at a final concentration of 1 mg/mL and after 24 hours, expression of Cav3.2 was induced with 1 μg/mL tetracycline. The medium for the HEK-293 cells was composed of D-MEM/F-12 (Dulbecco's Modified Eagle Medium/Nutrient Mixture F-12; Gibco, #11330-032) and 15 mM HEPES buffer, with L-glutamine and pyridoxine hydrochloride. It was supplemented with FBS (Fetal Bovine Serum), P/S (Penicillin/Streptomycin) (Gibco, #15140-122), and sodium pyruvate 100 mM (Gibco, #11360-070). At least 24 hours before the assay, expression of the alpha-2-delta-1 and beta2a subunits of the calcium channel were induced with 1 ug/mL tetracycline.
# Whole-cell voltage clamp recordings were performed on rat or mouse DRG neurons within 2 days after acutely dissociation or cultured HEK293 cells expressing T-type channels (encoded by Cav3.1, Cav3.2 or Cav3.3 channels). All experiments were performed at room temperature (around 21° C.). Whole-cell currents were recorded using a MultiClamp 700B amplifier and analyzed offline with pCLAMP10.4 software (Molecular Devices, LLC, Sunnyvale Calif., USA). To record calcium currents in DRG and HEK293 cells, the external solution was composed (in mM) of 115 choline-Cl, 30 TEA-Cl, 2 CaCl2, 10 glucose and 10 HEPES (pH 7.3-7.4 adjusted with TEA-OH; osmolality verified as 295 mOsm/kg). The internal solution was composed (in mM) of 125 CsCl, 10 HEPES (acid), 10 EGTA (ethylene glycol tetraacetic acid), 1 CaCl2, 1 MgCl2, 4 MgATP and 0.3 MgGTP (pH 7.3-7.4 adjusted with CsOH; osmolality verified as 295 mOsm/kg). Since the sodium ions were absent in the external solution, tetrodoctoxin was not needed. Calcium currents were recorded at a holding potential of −100 mV and then depolarized to −30 mV for 100 ms to activate either Cav3.1, Cav3.2, or Cav3.3 expressed in HEK cells. An interpulse interval of 10 seconds allowed the channel recovery from inactivation, and achieved stable current recordings. To record sodium (Na^+) currents in DRG neurons, the external solution used the modified Krebs solution specified above. The internal solution was composed (in mM) of 120 CsF, 10 HEPES, 11 EGTA, 1 CaCl2, 1 MgCl2, 10 TEA-Cl, 4 MgATP and 0.3 MgGTP (pH 7.3-7.4 adjusted with CsOH). […] To record potassium currents in DRG neurons, the external solution used the modified Kreb's solution specified above. The internal solution was composed (in mM) of 65 KCl, 80 KF, 5 KOH, 10 EGTA, 2 MgATP (pH 7.3-7.4 adjusted with KOH). Recording electrodes were fabricated using a P-87 puller (Sutter Instrument Co., Novato, Calif., USA). The tip of resistance was 3-4 MQ in bath and the series resistance was less than 10 MΩ after whole cell configuration. All reagents were purchased from Sigma unless specified otherwise. Test compounds were usually applied via a rapid solution exchange system with 8 fine polyplastic tubings (100 μm, OD) glued in a holder in parallel and located closely to the recorded cells. […]
# T1 sequence (O95180 whole entry): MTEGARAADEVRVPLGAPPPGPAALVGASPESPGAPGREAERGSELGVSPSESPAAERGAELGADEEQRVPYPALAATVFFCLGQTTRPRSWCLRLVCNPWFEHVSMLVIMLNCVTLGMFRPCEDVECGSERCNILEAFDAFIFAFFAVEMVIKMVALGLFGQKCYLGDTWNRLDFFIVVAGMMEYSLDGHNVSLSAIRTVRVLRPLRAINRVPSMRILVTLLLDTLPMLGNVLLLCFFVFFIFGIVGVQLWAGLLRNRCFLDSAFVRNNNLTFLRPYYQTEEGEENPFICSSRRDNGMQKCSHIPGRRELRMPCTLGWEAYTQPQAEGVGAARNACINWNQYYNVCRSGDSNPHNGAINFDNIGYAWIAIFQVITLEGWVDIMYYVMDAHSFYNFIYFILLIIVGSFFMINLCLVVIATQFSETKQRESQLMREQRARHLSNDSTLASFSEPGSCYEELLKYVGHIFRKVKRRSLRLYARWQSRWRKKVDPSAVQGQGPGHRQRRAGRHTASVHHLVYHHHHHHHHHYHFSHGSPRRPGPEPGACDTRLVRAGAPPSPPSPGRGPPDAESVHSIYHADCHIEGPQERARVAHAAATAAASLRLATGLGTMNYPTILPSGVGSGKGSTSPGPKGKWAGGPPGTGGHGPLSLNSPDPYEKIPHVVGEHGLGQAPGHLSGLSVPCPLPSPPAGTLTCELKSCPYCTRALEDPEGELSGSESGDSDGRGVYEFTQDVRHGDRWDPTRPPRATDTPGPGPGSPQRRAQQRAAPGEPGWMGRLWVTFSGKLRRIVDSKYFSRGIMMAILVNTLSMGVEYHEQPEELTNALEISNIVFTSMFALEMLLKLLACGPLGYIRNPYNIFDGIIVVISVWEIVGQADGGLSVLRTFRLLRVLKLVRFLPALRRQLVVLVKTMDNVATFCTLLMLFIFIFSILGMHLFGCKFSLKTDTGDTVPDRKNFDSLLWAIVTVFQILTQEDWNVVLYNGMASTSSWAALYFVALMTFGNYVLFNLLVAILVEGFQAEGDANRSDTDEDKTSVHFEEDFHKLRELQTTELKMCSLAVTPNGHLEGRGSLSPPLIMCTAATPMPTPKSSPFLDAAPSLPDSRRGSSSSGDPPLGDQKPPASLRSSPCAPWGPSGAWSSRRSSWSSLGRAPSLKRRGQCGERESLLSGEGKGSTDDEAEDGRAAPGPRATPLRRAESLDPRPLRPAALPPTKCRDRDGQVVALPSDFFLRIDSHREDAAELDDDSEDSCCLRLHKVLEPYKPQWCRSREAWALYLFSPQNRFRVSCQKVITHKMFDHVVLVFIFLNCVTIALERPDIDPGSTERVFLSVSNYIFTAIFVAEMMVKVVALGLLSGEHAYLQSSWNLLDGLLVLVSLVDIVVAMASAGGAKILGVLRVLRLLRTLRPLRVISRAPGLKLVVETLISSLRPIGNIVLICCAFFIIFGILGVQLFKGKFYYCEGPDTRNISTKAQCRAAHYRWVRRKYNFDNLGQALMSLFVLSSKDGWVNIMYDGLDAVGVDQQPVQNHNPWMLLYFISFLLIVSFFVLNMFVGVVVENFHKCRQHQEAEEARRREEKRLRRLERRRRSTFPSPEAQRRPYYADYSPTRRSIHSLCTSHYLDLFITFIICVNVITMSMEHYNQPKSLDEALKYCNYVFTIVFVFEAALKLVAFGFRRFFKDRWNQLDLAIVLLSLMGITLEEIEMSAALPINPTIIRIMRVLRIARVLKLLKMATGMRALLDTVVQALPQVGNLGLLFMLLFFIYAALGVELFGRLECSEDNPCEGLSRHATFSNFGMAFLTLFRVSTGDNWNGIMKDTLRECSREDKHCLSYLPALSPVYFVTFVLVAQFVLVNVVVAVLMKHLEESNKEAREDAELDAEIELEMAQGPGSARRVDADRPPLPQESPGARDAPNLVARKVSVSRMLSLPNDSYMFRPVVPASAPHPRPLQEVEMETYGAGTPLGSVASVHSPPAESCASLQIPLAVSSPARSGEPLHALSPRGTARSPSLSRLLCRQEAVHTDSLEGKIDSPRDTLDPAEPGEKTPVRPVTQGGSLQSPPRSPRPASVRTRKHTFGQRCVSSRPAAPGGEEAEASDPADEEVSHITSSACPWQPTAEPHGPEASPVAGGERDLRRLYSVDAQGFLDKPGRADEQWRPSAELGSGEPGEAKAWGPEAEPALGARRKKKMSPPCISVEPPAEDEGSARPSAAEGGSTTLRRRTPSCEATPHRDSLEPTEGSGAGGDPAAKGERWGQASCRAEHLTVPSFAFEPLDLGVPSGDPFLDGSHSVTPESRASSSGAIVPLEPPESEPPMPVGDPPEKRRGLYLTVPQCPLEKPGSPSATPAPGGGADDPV
IC50 [nM],inhibition at 1 µM [%],SMILES
160,,"O=C(NC1CC12CCN(CCc1ccc(Cl)cc1)CC2)c1cc(Cl)cc(Cl)c1 (stereo not shown) [Example 41, 3,5-Dichloro-N-(6-(4-chlorophenethyl)-6-azaspiro[2.5]octan-1-yl)benzamide]"
120,,"O=C(NC1CC12CCN(CCc1ccc(C(F)(F)F)cc1)CC2)c1cc(Cl)cc(Cl)c1 (stereo not shown) [Example 43, 3,5-Dichloro-N-(6-(4-(trifluoromethyl)phenethyl)-6-azaspiro[2.5]octan-1-yl)benzamide]"
40,,"O=C(NC1CC12CCN(CCCc1ccccc1)CC2)c1cc(Cl)cc(Cl)c1 (stereo not shown) [Example 45, 3,5-Dichloro-N-(6-(3-phenylpropyl)-6-azaspiro[2.5]octan-1-yl)benzamide]"
150,,"O=C(NC1CC12CCN(CC1CCOCC1)CC2)c1cc(Cl)cc(Cl)c1 (stereo not shown) [Example 46, 3,5-Dichloro-N-(6-((tetrahydro-2H-pyran-4-yl)methyl)-6-azaspiro[2.5]octan-1-yl)benzamide]"
160,,"O=C(NC1CC12CCN(CCC1CCOCC1)CC2)c1cc(Cl)cc(Cl)c1 (stereo not shown) [Example 47, 3,5-Dichloro-N-(6-(2-(tetrahydro-2H-pyran-4-yl)ethyl)-6-azaspiro[2.5]octan-1-yl)benzamide]"
260,,"O=C(NC1CC12CCN(CCCC1CCOCC1)CC2)c1cc(Cl)cc(Cl)c1 (stereo not shown) [Example 48, 3,5-Dichloro-N-(6-(3-(tetrahydro-2H-pyran-4-yl)propyl)-6-azaspiro[2.5]octan-1-yl)benzamide]"
160,,"CC(C)(C)C(=O)CN1CCC2(CC1)CC2NC(=O)c1cc(Cl)cc(Cl)c1 (stereo not shown) [Example 49, 3,5-Dichloro-N-(6-(3,3-dimethyl-2-oxobutyl)-6-azaspiro[2.5]octan-1-yl)benzamide]"
80,,"O=C(CN1CCC2(CC1)CC2NC(=O)c1cc(Cl)cc(Cl)c1)c1ccc(C(F)(F)F)cc1 (stereo not shown) [Example 50, 3,5-Dichloro-N-(6-(2-oxo-2-(4-(trifluoromethyl)phenyl)ethyl)-6-azaspiro[2.5]octan-1-yl)benzamide]"
,47,"CC(C)(C)CCN1CCC2(CC1)CC2NS(=O)(=O)c1cc(Cl)cc(Cl)c1 (stereo not shown) [Example 51, 3,5-Dichloro-N-(6-(3,3-dimethylbutyl)-6-azaspiro[2.5]octan-1-yl)benzenesulfonamide]"
,29,"O=S(=O)(NC1CC12CCN(CCc1ccccc1)CC2)c1cc(Cl)cc(Cl)c1 (stereo not shown) [Example 52, 3,5-Dichloro-N-(6-phenethyl-6-azaspiro[2.5]octan-1-yl)benzenesulfonamide]"
,25,"CC(C)(C)NC(=O)CN1CCC2(CC1)CC2NS(=O)(=O)c1cc(Cl)cc(Cl)c1 (stereo not shown) [Example 53, N-(tert-Butyl)-2-(1-((3,5-dichlorophenyl)sulfonamido)-6-azaspiro[2.5]octan-6-yl)acetamide]"
230,,"CN(C(=O)c1cc(Cl)cc(Cl)c1)C1CC12CCN(CCC(C)(C)C)CC2 (stereo not shown) [Example 54, 3,5-Dichloro-N-(6-(3,3-dimethylbutyl)-6-azaspiro[2.5]octan-1-yl)-N-methylbenzamide]"

# Continued, compound first:
SMILES,IC50 [nM],inhibition at 1 µM [%]
"O=C(NC1CC12CCN(CCc1ccccc1)CC2)c1cc(Cl)cc(Cl)c1 (stereo not shown) [Example 13, 3,5-Dichloro-N-(6-phenethyl-6-azaspiro[2.5]octan-1-yl)benzamide]",30,
"O=C(NC1CC12CCN(Cc1ccccc1)CC2)c1cc(Cl)cc(Cl)c1 (stereo not shown) [Example 15, N-(6-Benzyl-6-azaspiro[2.5]octan-1-yl)-3,5-dichlorobenzamide]",80,
"CC(C)(C)NC(=O)CN1CCC2(CC1)CC2NC(=O)c1cc(F)cc(C(F)(F)F)c1 (stereo not shown) [Example 18, N-{6-[(tert-Butylcarbamoyl)methyl]-6-azaspiro[2.5]octan-1-yl}-3-fluoro-5-(trifluoromethyl)benzamide]",250,
"CC(C)(C)CCN1CCC2(CC1)CC2NC(=O)c1ccccc1Cl (stereo not shown) [Example 20, 2-Chloro-N-(6-(3,3-dimethylbutyl)-6-azaspiro[2.5]octan-1-yl)benzamide]",,37
"CC(C)(C)CCN1CCC2(CC1)CC2NC(=O)c1cccc(Cl)c1 (stereo not shown) [Example 21, 3-Chloro-N-(6-(3,3-dimethylbutyl)-6-azaspiro[2.5]octan-1-yl)benzamide]",,67
"CC(C)(C)CCN1CCC2(CC1)CC2NC(=O)c1ccc(Cl)cc1 (stereo not shown) [Example 22, 4-Chloro-N-(6-(3,3-dimethylbutyl)-6-azaspiro[2.5]octan-1-yl)benzamide]",,50
"CC(C)(C)CCN1CCC2(CC1)CC2NC(=O)c1ccc(Cl)cc1Cl (stereo not shown) [Example 23, 2,4-Dichloro-N-(6-(3,3-dimethylbutyl)-6-azaspiro[2.5]octan-1-yl)benzamide]",,69
"CC(C)(C)CCN1CCC2(CC1)CC2NC(=O)c1cc(F)cc(C(F)(F)F)c1 (stereo not shown) [Example 24, N-(6-(3,3-Dimethylbutyl)-6-azaspiro[2.5]octan-1-yl)-3-fluoro-5-(trifluoromethyl)benzamide]",20,
"CC(C)(C)CCN1CCC2(CC1)CC2NC(=O)c1cc(Br)cc(Br)c1 (stereo not shown) [Example 25, 3,5-Dibromo-N-(6-(3,3-dimethylbutyl)-6-azaspiro[2.5]octan-1-yl)benzamide]",60,
"CC(C)(C)CCN1CCC2(CC1)CC2NC(=O)c1cncc(C(F)(F)F)c1 (stereo not shown) [Example 26, N-(6-(3,3-dimethylbutyl)-6-azaspiro[2.5]octan-1-yl)-5-(trifluoromethyl)nicotinamide]",,64
"CC(C)(C)CCN1CCC2(CC1)CC2NC(=O)c1ccc(Cl)s1 (stereo not shown) [Example 27, 5-Chloro-N-(6-(3,3-dimethylbutyl)-6-azaspiro[2.5]octan-1-yl)thiophene-2-carboxamide]",550,
"CC(C)(C)CCN1CCC2(CC1)CC2NC(=O)c1cccc(C(F)(F)F)c1 (stereo not shown) [Example 29, N-(6-(3,3-Dimethylbutyl)-6-azaspiro[2.5]octan-1-yl)-3-(trifluoromethyl)benzamide]",,69
"CC(C)(C)CCN1CCC2(CC1)CC2NC(=O)C12CC3CC(CC(C3)C1)C2 (stereo not shown) [Example 30, N-[6-(3,3-Dimethylbutyl)-6-azaspiro[2.5]octan-1-yl]adamantane-1-carboxamide]",90,
"CC(C)(C)CCN1CCC2(CC1)CC2NC(=O)Cc1cc(C(F)(F)F)cc(C(F)(F)F)c1 (stereo not shown) [Example 31, 2-(3,5-Bis(trifluoromethyl)phenyl)-N-(6-(3,3-dimethylbutyl)-6-azaspiro[2.5]octan-1-yl)acetamide]",80,
"Cc1cc(C)cc(C(=O)NC2CC23CCN(CCC(C)(C)C)CC3)c1 (stereo not shown) [Example 32, N-(6-(3,3-Dimethylbutyl)-6-azaspiro[2.5]octan-1-yl)-3,5-dimethylbenzamide]",290,
"COc1cc(OC)cc(C(=O)NC2CC23CCN(CCC(C)(C)C)CC3)c1 (stereo not shown) [Example 33, N-(6-(3,3-Dimethylbutyl)-6-azaspiro[2.5]octan-1-yl)-3,5-dimethoxybenzamide]",,63
"CC(C)(C)CCN1CCC2(CC1)CC2NC(=O)c1cccc(C#N)c1 (stereo not shown) [Example 34, 3-Cyano-N-(6-(3,3-dimethylbutyl)-6-azaspiro[2.5]octan-1-yl)benzamide]",1400,
"CC(C)NC(=O)CN1CCC2(CC1)CC2NC(=O)c1cc(Cl)cc(Cl)c1 (stereo not shown) [Example 37, 3,5-Dichloro-N-(6-(2-(isopropylamino)-2-oxoethyl)-6-azaspiro[2.5]octan-1-yl)benzamide]",50,
"O=C(NC1CC12CCN(CCc1ccc(F)cc1)CC2)c1cc(Cl)cc(Cl)c1 (stereo not shown) [Example 40, 3,5-Dichloro-N-(6-(4-fluorophenethyl)-6-azaspiro[2.5]octan-1-yl)benzamide]",160,
